Reference: BindingDB's records for doi:10.1080/14756360400002007 (Crefsip, 2005)

Columns and labels:
Glutamate--tRNA ligase = biological target: T1, Glutamate--tRNA ligase (Escherichia coli (strain K12), UniProt P04805); assay: Determination of the Inhibition Type and Constant (Ki); details: pH 7.2; 37 °C
T1 sequence (P04805 whole entry): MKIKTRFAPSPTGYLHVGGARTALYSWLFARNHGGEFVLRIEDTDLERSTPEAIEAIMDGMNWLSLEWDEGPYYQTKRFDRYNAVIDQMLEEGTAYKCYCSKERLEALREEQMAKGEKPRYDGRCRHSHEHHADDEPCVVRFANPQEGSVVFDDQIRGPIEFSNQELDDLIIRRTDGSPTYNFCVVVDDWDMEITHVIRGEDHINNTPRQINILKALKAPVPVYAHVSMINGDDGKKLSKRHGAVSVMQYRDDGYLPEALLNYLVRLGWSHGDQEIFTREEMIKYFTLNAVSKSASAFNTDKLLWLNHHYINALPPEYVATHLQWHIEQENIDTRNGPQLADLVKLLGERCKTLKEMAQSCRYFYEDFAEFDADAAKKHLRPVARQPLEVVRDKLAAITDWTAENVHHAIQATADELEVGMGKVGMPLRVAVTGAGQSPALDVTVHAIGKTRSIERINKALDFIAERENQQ
Description: (§1) The Km and Kappm for the amino acid substrate were first calculated from Lineweaver-Burk plots. The Ki values were calculated from the Kappm vs [I] plot. The Ki values for the inhibitors with respect for the amino acid substrates were determined by measuring the apparent Km for the amino acid in the presence of saturating concentrations of both ATP and tRNA, and of various fixed concentrations of the inhibitor.

[1] = biological target: T2, Probable glutamate--tRNA ligase, mitochondrial (Mus musculus, UniProt Q9CXJ1); assay: as above; details: pH 8; 30 °C
T2 sequence (Q9CXJ1 whole entry): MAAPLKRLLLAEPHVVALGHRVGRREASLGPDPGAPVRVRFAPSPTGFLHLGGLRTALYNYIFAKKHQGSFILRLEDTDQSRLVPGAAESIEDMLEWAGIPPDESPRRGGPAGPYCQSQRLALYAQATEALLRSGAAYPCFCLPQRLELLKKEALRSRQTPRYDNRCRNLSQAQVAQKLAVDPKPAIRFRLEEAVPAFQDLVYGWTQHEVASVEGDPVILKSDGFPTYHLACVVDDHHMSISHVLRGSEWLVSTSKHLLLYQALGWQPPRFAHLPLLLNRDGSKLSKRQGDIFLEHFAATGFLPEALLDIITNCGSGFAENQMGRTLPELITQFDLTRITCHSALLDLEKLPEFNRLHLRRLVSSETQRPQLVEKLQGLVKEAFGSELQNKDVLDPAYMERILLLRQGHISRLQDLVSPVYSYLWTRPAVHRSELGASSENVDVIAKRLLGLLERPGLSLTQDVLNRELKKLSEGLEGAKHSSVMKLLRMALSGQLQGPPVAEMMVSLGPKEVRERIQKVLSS
Description: as §1

Nc1ncnc2c1ncn2[C@@H]1O[C@H](COS(=O)(=O)NC(=O)[C@@H](N)CCC(=O)O)[C@@H](O)[C@H]1O [5-O-[N-(L-Glutamyl)-sulfamoyl]adenosine 5]
Ki (Glutamate--tRNA ligase): 2.8 nM | Ki [1]: 70 nM

Nc1ncnc2c1ncn2[C@@H]1O[C@H](COS(=O)(=O)NC(=O)[C@@H]2CCC(=O)N2)[C@@H](O)[C@H]1O [(5S)-5-{[({[(2R,3S,4R,5R)-5-(6-amino-9H-purin-9-yl)-3,4-dihydroxyoxolan-2-yl]methoxy}sulfonyl)amino]carbonyl}pyrrolidin-2-one]
Ki (Glutamate--tRNA ligase): 15000 nM
